SMILES strings stand for the structures. ≈ marks a conversion by molar mass, not a printed value.

The test system of assay [1] is Saccharomyces cerevisiae. Description: DNA damaging activity against DNA repair-deficient yeast rad 6 assessed as drug level required to produce 12 mm zone of inhibition. The class given is functional.
For the next assay, the system named is Vero. Kind of assay: Cytotoxicity against african green monkey Vero cells after 7 days by XTT assay. The settings on record: Chlorocebus sabaeus, 168 h. The class given is cell-based. In general terms: Tetrazolium assays rely on reduction of a dye to a coloured formazan, in cell work by metabolically active cells.
The subject of assay [2] is Saccharomyces cerevisiae. Description: DNA damaging activity against DNA repair-proficient yeast RAD+ assessed as drug level required to produce 12 mm zone of inhibition. The assay is classed as functional.
For assay [3], the system named is Saccharomyces cerevisiae. Description: DNA damaging activity against DNA repair-deficient yeast rad 52 assessed as drug level required to produce 12 mm zone of inhibition. The class given is functional.
The test system of assay [4] is Saccharomyces cerevisiae. Kind of assay: DNA damaging activity against DNA repair-deficient yeast rad 52Y assessed as drug level required to produce 12 mm zone of inhibition. The assay is classed as functional.

`CC[C@@]1(O)C(=O)OCc2c1cc1n(c2=O)Cc2cc3ccccc3nc2-1` [CAMPTOTHECIN]: the IC12 in the assay with Saccharomyces cerevisiae [1] came to 8.7 µg/mL; with Saccharomyces cerevisiae [2], 110 µg/mL; in the assay with Saccharomyces cerevisiae [3] it was 0.6 µg/mL. For the same molecule, the IC50 (as a rule, the concentration that inhibits the measured activity by half) in the assay with Vero is 0.02 µg/mL (≈ 0.0574 µM).
In the case of `CC1(C)C=Cc2c(ccc3ccc(=O)oc23)O1` [SESALIN], the IC12 turned out to be 480 µg/mL with Saccharomyces cerevisiae [1], 220 µg/mL in the assay on Saccharomyces cerevisiae [2], 87 µg/mL in the assay with Saccharomyces cerevisiae [4] and 33 µg/mL in the assay on Saccharomyces cerevisiae [3]. The same molecule returned a 50% inhibitory concentration (IC50) in the assay on Vero of 12 µg/mL (≈ 52.6 µM).
The like results for `CC1(C)C=Cc2cc3ccc(=O)oc3cc2O1` [XANTHYLETIN] were, in that order, 318 µg/mL, 21 µg/mL, 87 µg/mL, 52 µg/mL and greater than 20 µg/mL.

Source of the values: ChEMBL document CHEMBL1149059, “Biological activity of some coumarins from Sri Lankan Rutaceae” (J Nat Prod, 1994).
